The test system of the assay is Caenorhabditis elegans. Put plainly: Nematicidal activity against C. elegans (motility rating). In kind it is in vivo, C. elegans (Bristol strain). Also noted: key: 9: complete kill; 8: no motility; 7: markedly reduced motility in approximately 95% of worms; 6: reduced motility; 5: slightly reduced motility; 0: normal motility, same as controls. Conditions: read at 4 and 24 hours post-immersion. As to the method: Cultures of C. elegans (Bristol strain from J. Lewis) are maintained on E. coli lawns on NG Agar Plates at 20° C. New cultures are established weekly.
Nematodes for testing are washed from 4-5 day old cultures using Fresh Ascaris Ringers Solution (FARS). The worms are further washed with FARS,-containing gentamycin, to reduce bacterial contamination and centrifuged to separate worms from wash solution. This procedure is repeated three times. The washed worms are then added to C. brigassae Maintenance Medium (CbMM), from GIBCOa to which is added gentamycin (600 units/ml) and mycostatin (0.5 mg/ml).
Compounds are dissolved in acetone and made up to volume with equal parts of water. The final test concentration of each compound in the mixture is 150 ppm. The test material is micropipetted (25 ul) into a single well of a 96-well sterile tissue culture plate (COSTAR)^b and the solvent allowed to evaporate. These "treated" plates are used immediately or stored in a refrigerator without apparent adverse effects on the compounds.
A freshly prepared volume ([…]) of C. elegans in CbMM is micropipetted into each treated well and several control wells per plate. Culture plates are incubated at 20° C.
Observations for efficacy are made under a dissecting microscope at 4 and 24 hours post-immersion. Immediately prior to reading the plate, it is gently tapped to stimulate the movement of the worms. Activity is judged based on the drug effects on motility of the adults and larvae. […] Other factors indicating activity are easily noted such as death, rigor mortis, contraction, coiling, paralysis, abnormal twitching, reduced worm population in 48 hours and other deviation from normal behavior.
Day 0 Inoculate E. Coli-NG Agar Dish With 30-40
Day 4 Harvest New C. Elegans Population
Add C. Elegans (25-100 µL) To "Medicated"
Observe for Activity at 4 hours Post-
Day 5 Observe For Activity
With `CCOCn1c(-c2ccc(C(F)(F)F)cc2)c(C#N)c(Br)c1C(F)(F)F` [4-Bromo-1-(ethoxymethyl)-5-(trifluoromethyl)-2-(α,α,α-trifluoro-P-tolyl)-pyrrole-3-carbonitrile], the “Rating Against C. Elegans 150 ppm” value is on record as 9.
In the case of `N#Cc1c(-c2ccc(C(F)(F)F)cc2)[nH]c([N+](=O)[O-])c1Br` [4-Bromo-5-nitro-2-(α,α,α-trifluoro-P-tolyl)pyrrole-3-carbonitrile] it was 9; in that of `N#Cc1c(-c2ccc(C(F)(F)F)cc2)[nH]c(Cl)c1Cl` [4,5-Dichloro-2-(α,α,α-trifluoro-P-tolylpyrrole-3-carbonitrile], 9.
In the case of `N#Cc1c(Br)c(Br)n(Cc2ccccc2)c1-c1ccc(C(F)(F)F)cc1` [1-Benzyl-4,5-dibromo-2-(α,α,α-trifluoro-p-tolyl)pyrrole-3-carbonitrile] it was 9; in that of `O=[N+]([O-])c1c(-c2ccc(Cl)c(Cl)c2)[nH]c(Cl)c1Cl` [2,3-Dichloro-5-(3,4-dichlorophenyl)-4-nitropyrrole], 9.
Then `N#Cc1c(Br)[nH]c(-c2ccc(C(F)(F)F)cc2)c1Br` [2,4-Dibromo-5-(α,α,α-trifluoro-P-tolyl)pyrrole-3-carbonitrile], with 9; and `O=[N+]([O-])c1c[nH]cc1-c1ccc(Cl)cc1` [3-(P-chlorophenyl)-4-nitro-pyrrole], with 9; and `N#Cc1ccc(-c2[nH]c(Br)c(Br)c2C#N)cc1` [4,5-Dibromo-2-(P-cyanophenyl)-pyrrole-3-carbonitrile], with 9.
Consider `O=[N+]([O-])c1c(-c2ccc(C(F)(F)F)cc2)[nH]c(Cl)c1Cl` [2,3-Dichloro-4-nitro-5-(α,α,α-Trifluoro-p-tolylpyrrole], for which the “Rating Against C. Elegans 150 ppm” value is recorded as 9.
With `COCn1c(-c2ccc(Cl)cc2)c(C#N)c(Br)c1C(F)(F)F` [4-Bromo-2-(P-chlorophenyl)-1-(1-methoxymethyl)-5-(trifluoromethyl)pyrrole-3-carbonitrile], the “Rating Against C. Elegans 150 ppm” value is 9.
Regarding `O=[N+]([O-])c1c[nH]cc1-c1ccccc1` [3-Nitro-4-phenylpyrrole], the “Rating Against C. Elegans 150 ppm” value was found to be 9.
Then `O=[N+]([O-])c1c(-c2ccc(Br)cc2)[nH]c(Cl)c1Cl` [2-(P-bromophenyl)-4,5-dichloro-3-nitropyrrole], with 9.
Then `C=CCn1c(Cl)c(Cl)c(C#N)c1-c1ccc(Cl)c(Cl)c1` [1-Alkyl-4,5-dichloro-2-(3,4-dichlorophenyl)pyrrole-3-carbonitrile], with 9; and `N#Cc1c(Br)[nH]c(C(F)(F)F)c1-c1ccccc1` [2-Bromo-4-phenyl-5-(trifluoromethyl)pyrrole-3-carbonitrile], with 9; and `N#Cc1c(-c2ccccc2Cl)[nH]c(Br)c1Br` [4,5-Dibromo-2-(0-chlorophenyl)-pyrrole-3-carbonitrile], with 9.
In the case of `N#Cc1c(-c2cccc([N+](=O)[O-])c2)[nH]c(C(F)(F)F)c1Br` [4-Bromo-2-(m-nitrophenyl)-5-(trifluoromethyl)pyrrole-3-carbonitrile] it was 9; in that of “4,5-Dichloro-1-(hydromethyl)-2-(α,α,α-trifluoro-P-tolyl)”, 9.
With `N#Cc1c(-c2ccc(C(F)(F)F)cc2)[nH]c(Br)c1Br` [4,5-Dibromo-2-(α,α,α-trifluoro-p-tolyl)pyrrole-3-carbonitrile], the “Rating Against C. Elegans 150 ppm” value is given as 9.
Then `O=[N+]([O-])c1cc([N+](=O)[O-])c(-c2ccc(Br)cc2)[nH]1` [2-(P-bromophenyl)-3,5-dimitropyrrole], with 9.
On to `N#Cc1[nH]c(-c2ccc(Cl)c(Cl)c2)c(Br)c1Br` [3,4-dibromo-5-(3,4-dichlorophenyl)pyrrole-2-carbonitrile], for which the “Rating Against C. Elegans 150 ppm” value turned out to be 9.
In the case of `CCOCn1c(-c2ccc(Cl)cc2Cl)c(C#N)c(Br)c1C(F)(F)F` [4-Bromo-2-(2,4-Dichlorophenyl)-1-(ethoxymethyl)-5-(trifluoromethyl)pyrrole-3-carbonitrile] it was 9; in that of `CSCCn1c(Cl)c(Cl)c(C#N)c1-c1ccc(Cl)c(Cl)c1` [4,5-Dichloro-2-(3,4-dichlorophenyl)-1[2-(methylthio)ethyl]pyrrole-3-carbonitrile], 9; in that of `N#CCn1c(-c2ccc(Cl)cc2)c(C#N)c(Br)c1C(F)(F)F` [3-Bromo-5-(P-chlorophenyl)-4-cyano-2-(trifluoromethyl)-pyrrole-1-acetonitrile], 9.
In the case of `N#Cc1c(Br)c(C#N)n(Cc2ccccc2)c1-c1ccc(Cl)cc1` [1-Benzyl-3-bromo-5-(P-chlorophenyl)pyrrole-2,4-dicarbonitrile], the “Rating Against C. Elegans 150 ppm” value was determined as 9.
As to `N#Cc1cc(C#N)c(-c2ccc(Cl)c(Cl)c2)[nH]1` [5-(3,4-Dichlorophenyl)-pyrrole-3-dicarbonitrile], the “Rating Against C. Elegans 150 ppm” value was 9.
`N#Cc1[nH]ccc1-c1ccc(Cl)cc1` [3-(P-chlorophenyl)pyrrole-2-carbonitrile, 3-(p-chlorophenyl)-pyrrole-2-carbonitrile]: the “Rating Against C. Elegans 150 ppm” value is reported as 9.
In the case of `CS(=O)(=O)c1ccc(-c2[nH]c(Br)c(Br)c2C#N)cc1` [4,5-Dibromo-2-[P-(methylsulfonyl)phenyl]-pyrrole-3-carbonitrile] it was 9; in that of `N#Cc1c[nH]c(C(F)(F)F)c1-c1ccccc1` [4-Phenyl-5-(trifluoromethyl)pyrrole-3-carbonitrile], 9; in that of `N#Cc1c[nH]c(-c2ccc(C(F)(F)F)cc2)c1` [5-(α,α,α-trifluoro-tolyl)-pyrrole-3-carbonitrile], 9.
In the case of `N#Cc1c(-c2ccc([N+](=O)[O-])cc2)[nH]c(Cl)c1Cl` [4,5-Dichloro-2-(P-nitrophenyl)-pyrrole-3-carbonitrile] it was 9; in that of `COCCn1c(Cl)c(Cl)c(C#N)c1-c1ccc(C(F)(F)F)cc1` [4,5-Dichloro-1-(methoxyethyl)-2-(α,α,α-trifluoro-P-tolyl)pyrrole-3-carbonitrile], 9; in that of `N#Cc1c(-c2ccc(Cl)cc2Cl)[nH]c(C(F)(F)F)c1Br` [4-Bromo-2-(2,4-dichlorophenyl)-5-(trifluoromethyl)pyrrole-3-carbonitrile], 9.
Take `N#Cc1c(-c2ccc(Cl)c(Cl)c2)[nH]c([N+](=O)[O-])c1Br` [4-Bromo-2-(3,4-dichlorophenyl-5-nitropyrrole-3-carbonitrile]: the “Rating Against C. Elegans 150 ppm” value is 9.
Then `O=[N+]([O-])c1c(Cl)[nH]c(Cl)c1-c1ccc(Cl)c(Cl)c1` [2,5-Dichloro-3-(3,4-dichlorophenyl)-4-nitropyrrole], with 9.
As to `N#Cc1[nH]c(Br)c(C#N)c1-c1ccc(Cl)cc1` [5-Bromo-3-(P-chlorophenyl)-pyrrole-2,4-dicarbonitrile], the “Rating Against C. Elegans 150 ppm” value was determined as 9.
Then `N#Cc1c(-c2ccc(Cl)cc2)[nH]c(C(F)(F)F)c1Br` [4-Bromo-2-(p-chlorophenyl)-5-(trifluoromethyl)pyrrole-3-carbonitrile], with 9; and `N#Cc1[nH]c(Br)c(-c2ccc(Cl)cc2)c1Br` [3,5-Dibromo-4-(p-chlorophenyl)pyrrole-2-carbonitrile], with 9.
Then `FC(F)(F)c1[nH]ccc1-c1ccc(Cl)cc1` [3-(P-chlorophenyl)-2-(trifluoromethyl)pyrrole], with 9.
On to `N#Cc1c(-c2ccc(Cl)c(Cl)c2)[nH]c(C(F)(F)F)c1Br` [4-Bromo-2-(3,4-dichlorophenyl)-5-(trifluoromethyl)pyrrole-3-carbonitrile], for which the “Rating Against C. Elegans 150 ppm” value was 9.
In the case of `N#Cc1[nH]c(-c2ccc(OC(F)(F)F)cc2)c(C#N)c1Br` [3-Bromo-5-[P-(trifluoromethoxy)phenyl]-pyrrole-2-4-dicarbonitrile] it was 9; in that of `N#Cc1c(-c2ccc([N+](=O)[O-])cc2)[nH]c(Br)c1Br` [4,5-Dibromo-2-(P-nitrophenyl)-pyrrole-3-carbonitrile], 9; in that of `N#Cc1cc([N+](=O)[O-])[nH]c1-c1ccc(Cl)cc1` [2-(p-chlorophenyl)-5-nitropyrrole-3-carbonitrile], 9.
In the case of `N#Cc1cc([N+](=O)[O-])c(-c2ccc(Cl)c(Cl)c2)[nH]1` [5(3,4-Dichlorophenyl)-4-nitropyrrole-2-carbonitrile] it was 9; in that of `N#Cc1c(Br)[nH]c(C(F)(F)F)c1-c1ccc(Cl)cc1` [2-Bromo-4-(P-chlorophenyl)-5-(trifluoromethyl)pyrrole-3-carbonitrile], 9.

The values above are taken from patent US5310938A, “Substituted arylpyrrole compounds” (American Cyanamid Company, priority 1993, dated 1994).
